Measured values: US20250090441A1, “ANTI-CARIES PEPTIDES WITH ANTIMICROBIAL AND REMINERALIZING PROPERTIES AND METHODS THEREOF” (THE UNIVERSITY OF HONG KONG, priority 2023, published 2025)
Where a SMILES comes first, the peptide text is derived from it.

What was measured:
[1] = Effect on hard tissue, biofilm remineralization cycling model (micro-CT, FTIR); conditions: carious dentine, 160 μM GAPI
Excerpt: Dentine slices, 2 mm thick, were cut from sound extracted third molars. Ultra-fine 4000-grit sandpaper was used to polish these slices. Slices with defects were eliminated based on a stereomicroscope observation. A total of forty dentine slices were selected. Each slice was separated into two blocks and assigned to two groups. Nail varnish was used to coat half of the blocks as an internal control. S. mutans American Type Culture Collection 35668 was utilized in the present study. All the dentine blocks were placed into S. mutans culture (10^8 cells/mL) in a brain-heart infusion (BHI) broth containing 5% glucose to generate artificial caries. After a 3-day anaerobic culture at 37° C., the depth of the caries lesion surface was around 96 μm, which was observed using micro-computed tomography (micro-CT).
Two blocks from the same slice were assigned to the GAPI group (160 μM GAPI) and control group (deionized water) separately. All the blocks underwent a biochemical model involving chemical remineralization and an S. mutans biofilm challenge for seven days. The remineralization solution (pH 7.0) consisted of 1.5 mm calcium chloride, 150 mm potassium chloride, 0.9 mm potassium dihydrogen phosphate, and 20 mm 4-(2-hydroxyethyl)-1-piperazineethanesulfonic acid. The cycling process included 8 h of immersion in the remineralization solution and 16 h of immersion in an S. mutans biofilm medium.
Micro-CT (SkyScan 1272, Antwerp, Belgium) was employed to evaluate the lesion depths and mineral losses (n=8 for each group). The X-ray source parameters were set at an 80 kV voltage and 100 μA current with an image pixel size of 10 μm. Moreover, two standard mineral cylindrical phantoms (Bruker, Kontich, Belgium) with mineral density values (MDVs, gHApcm^−3) of 0.25 gHApcm^−3 and 0.75 gHApcm^−3 were scanned to calibrate the blocks' greyscales. The NRecon reconstruction software (Version 1.7.4.6, SkyScan, Antwerp, Belgium) was utilized to reconstruct the scanning images. The CTAn data analysis software (CTAn version 1.20.3.0, Skyscan NV, Kontich, Belgium) was employed to analyze the cross-sectional images. The lesion depths were measured, and the images' greyscale values were calibrated. Subsequently, the demineralized and control areas were calculated into the MDV for each block. The mineral loss was determined as the difference between the MDV of the control and the MDV of the demineralized area (Niu et al., 2022).
FTIR (Spectrum Two, PerkinElmer, Waltham, MA, USA) was employed to examine the changes in the dentin's chemical structures (n=8 for each group). […] The ratio of the HPO4^2− to amide I absorbance area represented the degree of demineralization in the dentin.

[2] = Remineralizing effects on enamel, chemical pH cycling model (SEM-EDS, Micro-CT, XRD); set-up: species or system human; conditions: 160 μM twice daily, pH cycling 8 days, n = 8
Description: Ten enamel slices were cut from extracted sound human molars. Each slice was separated into four blocks. A total of 40 enamel blocks were prepared. Then the surface of the enamel block was half-covered by an acid-resistant varnish. The exposed half was the experimental surface, and the varnished half was the internal control. Before use, all the enamel blocks were sterilized via autoclave (Niu et al. 2021d; Yu et al. 2018).
The pH-cycling procedure (16 h-demineralization at pH 4.5 and 8 h-remineralization at pH 7.0) was performed to enamel blocks for 8 days. The formula for demineralizing/remineralizing solution was employed from a previous study (Yu et al. 2018). The enamel blocks from the same enamel slice were treated twice daily with 160 μM GAPI (GAPI Group), 160 μM gallic acid (GA Group), 160 μM polyphemusin-I (PI Group), and sterile deionized water (Water Group). All enamel blocks after pH cycling were involved in sequent assessments.
The structure of the enamel surface was examined using SEM (n=8 per group) (Niu et al. 2021d). The elemental analysis of enamel surface was conducted using affiliated energy-dispersive X-ray spectroscopy (EDS). The calcium to phosphorus molar ratio was calculated (Niu et al. 2022). The mineral loss and lesion depth on the enamel blocks were assessed using microcomputed tomography (Micro-CT) (1076, SkyScan, Antwerp, Belgium) (n=8 per group) (Niu et al. 2022). The diffraction patterns of the enamel blocks were evaluated using X-ray diffraction analysis (XRD) (Rigaku SmartLab 9 kW, […]) (n=2 per group) (Yu et al. 2018).

[3] = 7 days cycling, micro-CT, n = 8

CC(C)[C@@H]1NC(=O)[C@H](CCCN=C(N)N)NC(=O)[C@H](Cc2ccccc2)NC(=O)[C@@H](NC(=O)[C@H](Cc2c[nH]c3ccccc23)NC(=O)[C@H](CCCN=C(N)N)NC(=O)[C@H](CCCN=C(N)N)NC(=O)c2cc(O)c(O)c(O)c2)CSSC[C@@H](C(=O)N[C@@H](CCCN=C(N)N)C(=O)O)NC(=O)[C@H](CCCCN)NC(=O)[C@H](CCCN=C(N)N)NC(=O)[C@H](Cc2ccc(O)cc2)NC(=O)[C@@H]2CSSC[C@H](NC1=O)C(=O)N[C@@H](Cc1ccc(O)cc1)C(=O)N[C@@H](CCCN=C(N)N)C(=O)NCC(=O)N[C@@H](Cc1ccccc1)C(=O)N2 [GAPI, Gallic-Acid-Polyphemusin-I] (HELM PEPTIDE1{[O=C(c1cc(O)c(O)c(O)c1)[*:2]].R.R.W.C.F.R.V.C.Y.R.G.F.C.Y.R.K.C.R}$PEPTIDE1,PEPTIDE1,5:R3-18:R3|PEPTIDE1,PEPTIDE1,9:R3-14:R3$$$V2.0)
lesion depths [1]: 151±18 μm | Hydrogen phosphate-to-amide I ratio ([1]; 7 days cycling, FTIR, n = 8): 2.92±0.82 | Lesion depth [1, 3]: 151 ± 18 μm | Mineral loss [1, 3]: 0.91±0.07 gHAcm^−3 | Calcium to phosphate molar ratio ([2]; EDS): 1.81 ± 0.05 | Lesion depth ([2]; Micro-CT): 64 ± 7 μm | Mineral loss ([2]; Micro-CT): 0.89 ± 0.20 gHApcm^−3
